Test results taken from paper PMC12040169 (PLOS Biology, 2025).

Assay: in vitro
Settings: human, hela cells, % viability

| SMILES | viability at 28.5 h, 10 µM [%] |
| --- | --- |
| O=C(O)CCc1ccc(-c2ccc(N3CCN(CCN4CCCC4)CC3)nc2)cc1 [CBK037796] | 103 |
| Cc1ccc(-c2cccc(N3CCN(CCN4CCCC4)CC3)n2)cc1C [CBK037799] | 113 |
| c1ccc(-c2ccc(Nc3ccc4c(c3)OCCO4)nc2)cc1 [CBK037802] | 98.3 |
| N#Cc1cccc(Nc2cncc(-c3cccc(C(=O)NCCO)c3)n2)c1 [CBK037810] | 97.1 |
| N#Cc1ccc(-c2cc(N3CCN(C(=O)c4ccco4)CC3)ncn2)cc1 [CBK037813] | 98.2 |
| c1ccc2c(-c3cc(Nc4ccc5[nH]ccc5c4)ncn3)cccc2c1 [CBK037815] | 42.9 |
| O=C(c1ccco1)N1CCN(c2cc(-c3ccccc3Oc3ccccc3)ncn2)CC1 [CBK037817] | 96.8 |
| CC(=O)Nc1cccc(-c2cncc(NCCc3c[nH]c4ccccc34)n2)c1 [CBK037820] | 97.9 |
| O=C(O)CCc1ccc(-c2cc(N3CCN(c4ccccn4)CC3)ncn2)cc1 [CBK037821] | 105 |
| Nc1ccc(C(=O)Nc2ccc(Nc3cc(-c4cccnc4)ncn3)cc2)cc1 [CBK037823] | 94.6 |
| CN(C)c1cccc(-c2cc(N3CCN(c4ccccn4)CC3)ncn2)c1 [CBK037825] | 104 |
| CCCC/C=C/c1cncc(NC2CCC(O)CC2)n1 (stereo not shown) [CBK037840] | 105 |
| O=C(c1ccco1)N1CCN(c2cc(-c3ccc(OCc4ccccc4)cc3)ncn2)CC1 [CBK037844] | 97.6 |
| O=C(O)c1cccc(-c2cncc(NCCCN3CCOCC3)n2)c1 [CBK037850] | 104 |
| OCc1ccccc1-c1cncc(NCCc2c[nH]c3ccccc23)n1 [CBK037852] | 93.2 |
| CC(C)(CO)CNc1cncc(-c2cccc(Cl)c2)n1 [CBK037862] | 102 |
| c1ccc(CNc2nc(-c3ccsc3)cn3ccnc23)cc1 [CBK037868] | 88 |
| CN(C)CCN(C)c1nc(-c2ccc(C(=O)O)cc2)cn2ccnc12 [CBK037880] | 96.7 |
| CC(C)(CO)CNc1cncc(-c2cccnc2)n1 [CBK037881] | 89.8 |
| CCC(CO)Nc1cncc(-c2cc(OC)c(OC)c(OC)c2)n1 (stereo not shown) [CBK037882] | 98.9 |
| NC1CCC(Nc2cncc(-c3ccc(F)c(Cl)c3)n2)CC1 (stereo not shown) [CBK037893] | 99.6 |
| CN(C)c1ccc(-c2cn3ccnc3c(NC3CC3)n2)cc1 [CBK037894] | 103 |
| COc1cc(-c2cn3ccnc3c(N3CCN(c4ccncc4)CC3)n2)cc(OC)c1OC [CBK037896] | 86.6 |

| SMILES | viability at 28.5 h, 10 µM [%] |
| --- | --- |
| c1ccc2cc(-c3cncc(NCc4ccncc4)n3)ccc2c1 [CBK037899] | 92.2 |
| COc1cncc(-c2cncc(NCCCN3CCOCC3)n2)c1 [CBK037902] | 84 |
| OCCC1CCCCN1c1cncc(-c2cccc(Cl)c2)n1 (stereo not shown) [CBK037906] | 108 |
| c1cnc2c(-c3cn4ccnc4c(NC4CC4)n3)cccc2c1 [CBK037911] | 111 |
| O=C(O)c1cccc(-c2cncc(NCc3ccncc3)n2)c1 [CBK037915] | 106 |
| CCCC/C=C/c1cncc(N2CCN(C(=O)c3ccco3)CC2)n1 [CBK037918] | 91.3 |
| COc1ccc(C(C)C)cc1-c1cncc(N2CCN(c3ccccc3C#N)CC2)n1 [CBK037927] | 98.8 |
| OCCN1CCN(c2nc(C3CCOC3)cn3ccnc23)CC1 (stereo not shown) [CBK037931] | 98.5 |
| CC(C)c1ccc(-c2cncc(NCCCO)n2)cc1 [CBK037937] | 106 |
| COc1ncc(-c2cncc(NCCO)n2)c(OC)n1 [CBK037939] | 106 |
| OCc1cccc(-c2cncc(NCCc3cccnc3)n2)c1 [CBK037946] | 98.8 |
| CN(C)CCN(C)c1nc(-c2cc(C(F)(F)F)cc(C(F)(F)F)c2)cn2ccnc12 [CBK037971] | 104 |
| CC(=O)Nc1cccc(-c2nccnc2NCc2ccc3c(c2)OCO3)c1 [CBK037972] | 97.1 |
| COc1cc(-c2cncc(N3CCC(C(=O)O)CC3)n2)cc(OC)c1OC [CBK037973] | 100 |
| CC(=O)c1ccc(-c2nccnc2NCC2CC2)s1 [CBK037975] | 104 |
| c1cc(CCNc2nccn3ccnc23)ccn1 [CBK037976] | 99.2 |
| COc1ccccc1-c1cn2ccnc2c(NCCc2ccccn2)n1 [CBK037980] | 107 |
| COc1ccc(N2CCN(c3cncc(-c4cc(OC)c(OC)c(OC)c4)n3)CC2)cc1OC [CBK037988] | 99.9 |
| CN(C)C(=O)COc1cccc(Nc2nc(Br)cn3ccnc23)c1 [CBK037989] | 92.8 |
| COc1cc(-c2nccnc2N2CCCN(C)CC2)cc(OC)c1OC [CBK037994] | 97.8 |
| O=C(O)c1ccc(CNC(=O)c2cnc(-c3ccc(F)cc3)c(-c3ccc(O)cc3)c2)cc1 [CBK037996] | 101 |
| CC(=O)Nc1cccc(-c2nccnc2NCC(c2cccnc2)N(C)C)c1 (stereo not shown) [CBK037998] | 95.6 |
| CCNc1nc(-c2ccc3[nH]ccc3c2)cn2ccnc12 [CBK038002] | 99.5 |

| SMILES | viability at 28.5 h, 10 µM [%] |
| --- | --- |
| OCc1ccc(-c2nccnc2NCCc2c[nH]c3ccccc23)cc1 [CBK038004] | 98.8 |
| CN(C)CCN(C)c1nc(-c2ccc(F)c(Cl)c2)cn2ccnc12 [CBK038007] | 95.7 |
| COCCNc1nccnc1-c1ccccc1CO [CBK038010] | 108 |
| COc1ccc(-c2nccnc2N2CCN(C)CC2)cc1 [CBK038012] | 113 |
| COc1cc(-c2nccnc2NCCc2c[nH]c3ccccc23)cc(OC)c1OC [CBK038015] | 102 |
| Nc1cccc(-c2cc(C(=O)NCCc3cccnc3)cnc2-c2ccc(F)cc2)c1 [CBK038016] | 102 |
| FC(F)(F)Oc1cccc(-c2cn3ccnc3c(NCCc3ccccn3)n2)c1 [CBK038017] | 96.7 |
| O=C(O)CCc1ccc(-c2cn3ccnc3c(NCc3ccncc3)n2)cc1 [CBK038022] | 90.6 |
| COc1cc(-c2nccnc2N[C@@H](CO)C(C)C)cc(OC)c1OC [CBK038023] | 111 |
| Brc1cn2ccnc2c(NCc2ccccn2)n1 [CBK038024] | 88.7 |
| COc1ccc(-c2cc(C(=O)Nc3ccc(O)cc3)cnc2-c2ccc(F)cc2)cc1 [CBK038026] | 95.5 |
| COc1cc(C(O)CNC(=O)c2cnc(-c3ccc(F)cc3)c(-c3cccc(N)c3)c2)ccc1O (stereo not shown) [CBK038032] | 98.8 |
| CN(C)C(CNc1nccnc1-c1ccc(CO)cc1)c1cccnc1 (stereo not shown) [CBK038038] | 87.6 |
| Clc1ccccc1-c1cn2ccnc2c(NCc2cccnc2)n1 [CBK038039] | 94.5 |
| CCN(CCO)c1ccc(Nc2nc(-c3ccc(F)c(Cl)c3)cn3ccnc23)cc1 [CBK038042] | 100 |
| O=C(O)CCc1ccc(-c2cn3ccnc3c(Nc3ccc(Br)cc3)n2)cc1 [CBK038058] | 113 |
| COc1cc(CNc2nc(Br)cn3ccnc23)cc(OC)c1OC [CBK038060] | 110 |
| COc1cc(Nc2nc(-c3ccc4[nH]ccc4c3)cn3ccnc23)cc(OC)c1OC [CBK038069] | 95.5 |
| CC(C)[C@H](CO)Nc1nc(-c2ccc3c(c2)OCO3)cn2ccnc12 [CBK038071] | 101 |
| CCCC/C=C/c1nccnc1NCc1ccc(C(F)(F)F)cc1 [CBK038077] | 94.4 |
| Cc1cccc(CNc2nccnc2-c2cccc(N)c2)c1 [CBK038080] | 92.4 |
| OCCN1CCN(c2nccnc2-c2ccncc2)CC1 [CBK038084] | 89.2 |
| CCCC/C=C/c1cn2ccnc2c(Nc2ccc(OC)nc2)n1 [CBK038089] | 100 |

| SMILES | viability at 28.5 h, 10 µM [%] |
| --- | --- |
| CCCC/C=C/c1nccnc1NCc1cccs1 [CBK038090] | 101 |
| OCCCNc1nccnc1-c1ccccc1Cl [CBK038092] | 81.6 |
| COc1ccc([C@@]23CC[C@H](NC(=O)c4[nH]cnc4C)C[C@@H]2N(C)CC3)cc1OC [CBK038097] | 118 |
| O=S(=O)(Nc1cc(F)cc(C(F)(F)F)c1)c1cc2c(N3CCNCC3)nccc2s1 [CBK038102C] | 95.5 |
| CC(C)c1ccc(NS(=O)(=O)c2cc3c(N4CCNCC4)nccc3s2)cc1 [CBK038104C] | 91.4 |
| Cn1nc(C2CC2)cc1NS(C)(=O)=O [CBK038148] | 93.9 |
| CS(=O)(=O)Nc1nnc(C(F)(F)F)s1 [CBK038168] | 97.6 |
| COc1ccc([C@@]23CC[C@@H](NC(=O)CNc4ccc(Cl)c(Cl)c4)C[C@@H]2N(C)CC3)cc1OC [CBK038220] | 94.4 |
| COc1ccc([C@@]23CC[C@@H](NC(=O)Nc4ccc(Cl)c(C(F)(F)F)c4)C[C@@H]2N(C)CC3)cc1OC [CBK038224C] | 98.4 |
| COC12CCCC(C(=O)O)(CCC1)C2 [CBK038238] | 93.8 |
| CN(C)CCNc1nccc2sc(S(=O)(=O)NCCC3=CCCCC3)cc12 [CBK038244C] | 108 |
| COc1cc(CNS(=O)(=O)c2cc3c(NCCN(C)C)nccc3s2)cc(OC)c1OC [CBK038246C] | 91.8 |
| CC(=O)Oc1cc(C)cc(C#N)c1 [CBK038296] | 87.6 |
| CC1(C)OCC2(CCN(C(C)(C)C)CC2)O1 [CBK038298] | 93.2 |
| [O-][S+](c1ccc(Cl)c(Cl)c1)c1cc2c(N3CCCNCC3)nccc2s1 (stereo not shown) [CBK038304C] | 71.2 |
| C=CCN(c1ccccc1)S(=O)(=O)c1ccc(Br)cc1CC [CBK038344] | 95.8 |
| COc1ccc(C(F)(F)F)cc1N [CBK038366] | 89.6 |
| OC1CCN(c2nccc(C(F)(F)F)n2)CC1 [CBK038372] | 92.1 |
| CC(C)(C)c1ccc(S(=O)(=O)N2CCC3(CC2)OCCO3)cc1 [CBK038429] | 111 |
| CC(C)(C)CC(C)(C)NC(=O)NCCc1cccs1 [CBK038697] | 91.8 |
| CC(=O)Nc1cccc(C(=O)O)c1Cl [CBK038814] | 94.1 |
| COc1ccc([C@@]23CC[C@@H](NC(=O)Nc4cccc5nsnc45)C[C@@H]2N(C)CC3)cc1OC [CBK038874T] | 86.8 |
